{"source": "paper PMC10636171", "about": "(Cell Death & Disease, 2023)", "assay_in_all_cases": "HTRF/ADP-Glo kinase selectivity panel", "type_in_all_cases": "biochemical", "details_in_all_cases": "500 nM, read-out: 1D228(%inhibition)@500nM", "key": {"[1]": {"biological_target": "T1, CSK (Homo sapiens, UniProt P41240)", "T1 construct": "purchased Invitrogen (c-Met, TRKA, TRKB, TRKC)", "protocol": "(§1) The compound was serial diluted from 10 mM stock in DMSO, dilute the test compound to 0.1 mM (200 times the specified test concentration). 2 × ATP & Substrate solution and 2 × kinase & Metal solution were prepared using assay buffer; Transfer 25 nL compound to 384 assay plate by Echo 655; After centrifugation, add 2.5 μL 2 × kinase/metal ion solution 384 assay plate, and incubate at 25 °C for 10 min. 2 × XL665 & Antibody solution were prepared with detection buffer; 5 μL of Kinase Detection Reagent was added to the well, and incubated for 60 min at 25 °C; The fluorescence signals of 620 nm (Cryptate) and 665 nm (XL665) were read by microtiter plate reader; […]"}, "[2]": {"biological_target": "T2, JAK2 (Homo sapiens, UniProt O60674)", "T2 construct": "purchased Invitrogen (c-Met, TRKA, TRKB, TRKC)", "protocol": "as §1"}, "[3]": {"biological_target": "T3, EPHB2 (Homo sapiens, UniProt P29323)", "T3 construct": "purchased Invitrogen (c-Met, TRKA, TRKB, TRKC)", "protocol": "as §1"}, "[4]": {"biological_target": "T4, PDGFRβ (Homo sapiens, UniProt P09619)", "T4 construct": "purchased Invitrogen (c-Met, TRKA, TRKB, TRKC)", "protocol": "as §1"}, "[5]": {"biological_target": "T5, INSR (Homo sapiens, UniProt P06213)", "T5 construct": "purchased Invitrogen (c-Met, TRKA, TRKB, TRKC)", "protocol": "as §1"}, "[6]": {"biological_target": "T6, RET (Homo sapiens, UniProt P07949)", "T6 construct": "purchased Invitrogen (c-Met, TRKA, TRKB, TRKC)", "protocol": "as §1"}, "[7]": {"biological_target": "T7, EPHB3 (Homo sapiens, UniProt P54753)", "T7 construct": "purchased Invitrogen (c-Met, TRKA, TRKB, TRKC)", "protocol": "as §1"}, "[8]": {"biological_target": "T8, LCK (Homo sapiens, UniProt P06239)", "T8 construct": "purchased Invitrogen (c-Met, TRKA, TRKB, TRKC)", "protocol": "as §1"}, "[9]": {"biological_target": "T9, AXL (Homo sapiens, UniProt P30530)", "T9 construct": "purchased Invitrogen (c-Met, TRKA, TRKB, TRKC)", "T9 sequence (P30530 26-894)": "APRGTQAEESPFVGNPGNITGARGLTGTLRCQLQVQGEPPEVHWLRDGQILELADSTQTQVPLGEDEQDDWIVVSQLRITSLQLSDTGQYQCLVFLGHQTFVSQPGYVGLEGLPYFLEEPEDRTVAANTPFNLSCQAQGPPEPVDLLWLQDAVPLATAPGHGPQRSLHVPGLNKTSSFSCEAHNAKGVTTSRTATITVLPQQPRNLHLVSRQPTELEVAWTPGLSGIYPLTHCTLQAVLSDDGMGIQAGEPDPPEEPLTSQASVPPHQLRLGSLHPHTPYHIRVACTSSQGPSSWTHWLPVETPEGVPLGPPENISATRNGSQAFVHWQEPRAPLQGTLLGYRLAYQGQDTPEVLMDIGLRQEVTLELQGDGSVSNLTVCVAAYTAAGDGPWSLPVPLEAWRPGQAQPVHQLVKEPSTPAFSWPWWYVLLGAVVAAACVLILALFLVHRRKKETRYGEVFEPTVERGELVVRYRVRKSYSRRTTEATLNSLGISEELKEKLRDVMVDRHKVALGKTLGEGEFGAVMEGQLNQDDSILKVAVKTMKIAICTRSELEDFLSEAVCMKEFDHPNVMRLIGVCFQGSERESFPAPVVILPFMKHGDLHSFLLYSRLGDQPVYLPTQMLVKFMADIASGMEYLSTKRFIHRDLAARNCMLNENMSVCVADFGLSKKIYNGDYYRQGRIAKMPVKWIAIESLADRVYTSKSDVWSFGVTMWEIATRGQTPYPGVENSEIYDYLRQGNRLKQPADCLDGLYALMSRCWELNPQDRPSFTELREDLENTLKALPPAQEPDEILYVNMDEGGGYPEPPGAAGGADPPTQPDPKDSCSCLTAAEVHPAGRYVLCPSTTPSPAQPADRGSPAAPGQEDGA", "protocol": "as §1"}, "[10]": {"biological_target": "T10, FRK (Homo sapiens, UniProt P42685)", "T10 construct": "purchased Invitrogen (c-Met, TRKA, TRKB, TRKC)", "protocol": "as §1"}, "[11]": {"biological_target": "T11, BMX (Homo sapiens, UniProt P51813)", "T11 construct": "purchased Invitrogen (c-Met, TRKA, TRKB, TRKC)", "protocol": "as §1"}, "[12]": {"biological_target": "T12, EPHB4 (Homo sapiens, UniProt P54760)", "T12 construct": "purchased Invitrogen (c-Met, TRKA, TRKB, TRKC)", "protocol": "as §1"}, "[13]": {"biological_target": "T13, EGFR T790M L858R (Homo sapiens, UniProt P00533, L858R/T790M)", "T13 construct": "purchased Invitrogen (c-Met, TRKA, TRKB, TRKC)", "protocol": "as §1"}, "[14]": {"biological_target": "T14, EPHA8 (Homo sapiens, UniProt P29322)", "T14 construct": "purchased Invitrogen (c-Met, TRKA, TRKB, TRKC)", "protocol": "as §1"}, "[15]": {"biological_target": "T15, TYK2 (Homo sapiens, UniProt P29597)", "T15 construct": "purchased Invitrogen (c-Met, TRKA, TRKB, TRKC)", "T15 sequence (P29597 whole entry)": "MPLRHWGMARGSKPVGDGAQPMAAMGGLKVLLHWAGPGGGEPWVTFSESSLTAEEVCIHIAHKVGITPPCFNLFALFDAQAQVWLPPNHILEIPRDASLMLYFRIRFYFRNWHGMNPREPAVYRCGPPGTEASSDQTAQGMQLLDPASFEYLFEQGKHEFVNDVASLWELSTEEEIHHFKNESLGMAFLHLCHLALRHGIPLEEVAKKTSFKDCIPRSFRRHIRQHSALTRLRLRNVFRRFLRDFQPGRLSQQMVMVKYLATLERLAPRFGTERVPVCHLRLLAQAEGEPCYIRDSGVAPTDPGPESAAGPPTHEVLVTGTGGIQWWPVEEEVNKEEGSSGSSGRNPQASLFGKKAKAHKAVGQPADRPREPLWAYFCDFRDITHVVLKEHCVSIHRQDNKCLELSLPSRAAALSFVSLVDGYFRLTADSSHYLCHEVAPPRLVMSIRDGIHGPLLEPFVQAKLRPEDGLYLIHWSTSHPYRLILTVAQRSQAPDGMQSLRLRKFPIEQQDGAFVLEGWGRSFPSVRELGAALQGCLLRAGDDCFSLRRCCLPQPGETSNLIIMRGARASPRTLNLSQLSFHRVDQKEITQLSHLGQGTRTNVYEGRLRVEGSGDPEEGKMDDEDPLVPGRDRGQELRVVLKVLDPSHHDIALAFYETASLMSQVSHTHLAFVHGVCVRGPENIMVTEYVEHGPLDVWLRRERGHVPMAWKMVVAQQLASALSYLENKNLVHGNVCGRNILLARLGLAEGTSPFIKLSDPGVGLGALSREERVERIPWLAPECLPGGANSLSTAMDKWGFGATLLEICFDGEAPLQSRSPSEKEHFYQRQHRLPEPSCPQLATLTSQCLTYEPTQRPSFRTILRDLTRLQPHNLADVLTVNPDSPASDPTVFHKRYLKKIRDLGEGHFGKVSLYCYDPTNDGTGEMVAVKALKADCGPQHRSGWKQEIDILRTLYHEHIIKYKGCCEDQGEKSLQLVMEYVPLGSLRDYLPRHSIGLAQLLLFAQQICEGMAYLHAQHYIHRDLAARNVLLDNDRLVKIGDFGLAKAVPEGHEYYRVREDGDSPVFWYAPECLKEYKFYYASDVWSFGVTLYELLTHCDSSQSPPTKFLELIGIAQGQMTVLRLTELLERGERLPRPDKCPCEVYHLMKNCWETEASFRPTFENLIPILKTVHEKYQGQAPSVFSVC", "protocol": "as §1"}, "[16]": {"biological_target": "T16, TEC (Homo sapiens, UniProt P42680)", "T16 construct": "purchased Invitrogen (c-Met, TRKA, TRKB, TRKC)", "protocol": "as §1"}, "[17]": {"biological_target": "T17, DDR2 (Homo sapiens, UniProt Q16832)", "T17 construct": "purchased Invitrogen (c-Met, TRKA, TRKB, TRKC)", "protocol": "as §1"}, "[18]": {"biological_target": "T18, LYNb (Homo sapiens, UniProt P07948)", "T18 construct": "purchased Invitrogen (c-Met, TRKA, TRKB, TRKC)", "protocol": "as §1"}, "[19]": {"biological_target": "T19, KIT (Homo sapiens, UniProt P10721)", "T19 construct": "purchased Invitrogen (c-Met, TRKA, TRKB, TRKC)", "protocol": "as §1"}, "[20]": {"biological_target": "T20, EPHB1 (Homo sapiens, UniProt P54762)", "T20 construct": "purchased Invitrogen (c-Met, TRKA, TRKB, TRKC)", "protocol": "as §1"}, "[21]": {"biological_target": "T21, ZAP70 (Homo sapiens, UniProt P43403)", "T21 construct": "purchased Invitrogen (c-Met, TRKA, TRKB, TRKC)", "protocol": "as §1"}, "[22]": {"biological_target": "T22, Her4 (Homo sapiens, UniProt Q15303)", "T22 construct": "purchased Invitrogen (c-Met, TRKA, TRKB, TRKC)", "T22 sequence (Q15303 26-1308)": "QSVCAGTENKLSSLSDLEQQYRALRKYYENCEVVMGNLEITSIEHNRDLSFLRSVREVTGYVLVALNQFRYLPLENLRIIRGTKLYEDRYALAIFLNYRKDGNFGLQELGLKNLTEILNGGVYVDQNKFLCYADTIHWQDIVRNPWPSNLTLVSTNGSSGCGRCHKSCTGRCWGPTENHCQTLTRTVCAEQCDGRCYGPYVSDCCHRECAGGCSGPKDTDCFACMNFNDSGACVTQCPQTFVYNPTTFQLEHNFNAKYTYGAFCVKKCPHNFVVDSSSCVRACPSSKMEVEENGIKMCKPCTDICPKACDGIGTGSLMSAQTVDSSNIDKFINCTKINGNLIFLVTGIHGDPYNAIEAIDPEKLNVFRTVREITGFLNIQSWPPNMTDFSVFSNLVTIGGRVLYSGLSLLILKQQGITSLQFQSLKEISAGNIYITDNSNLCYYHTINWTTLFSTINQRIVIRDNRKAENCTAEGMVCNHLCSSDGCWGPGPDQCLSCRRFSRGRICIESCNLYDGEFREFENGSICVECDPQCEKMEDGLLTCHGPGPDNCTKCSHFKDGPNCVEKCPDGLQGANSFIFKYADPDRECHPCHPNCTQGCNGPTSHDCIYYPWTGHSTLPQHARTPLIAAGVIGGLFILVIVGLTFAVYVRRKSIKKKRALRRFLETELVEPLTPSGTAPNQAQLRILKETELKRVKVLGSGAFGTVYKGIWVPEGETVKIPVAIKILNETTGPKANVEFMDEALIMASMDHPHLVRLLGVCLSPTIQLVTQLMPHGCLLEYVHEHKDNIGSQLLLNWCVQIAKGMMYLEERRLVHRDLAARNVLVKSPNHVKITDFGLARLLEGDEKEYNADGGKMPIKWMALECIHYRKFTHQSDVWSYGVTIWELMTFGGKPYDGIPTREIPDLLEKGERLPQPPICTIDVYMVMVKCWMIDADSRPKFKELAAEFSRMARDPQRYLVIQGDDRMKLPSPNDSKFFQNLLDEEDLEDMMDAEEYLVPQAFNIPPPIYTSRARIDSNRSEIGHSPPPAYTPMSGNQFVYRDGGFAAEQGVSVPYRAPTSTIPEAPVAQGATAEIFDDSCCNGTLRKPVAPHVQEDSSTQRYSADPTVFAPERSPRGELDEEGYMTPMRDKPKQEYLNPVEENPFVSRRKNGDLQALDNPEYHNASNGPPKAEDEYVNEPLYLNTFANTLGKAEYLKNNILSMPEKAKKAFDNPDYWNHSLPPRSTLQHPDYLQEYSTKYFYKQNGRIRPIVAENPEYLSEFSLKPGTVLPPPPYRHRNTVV", "protocol": "as §1"}, "[23]": {"biological_target": "T23, MER (Homo sapiens, UniProt Q12866)", "T23 construct": "purchased Invitrogen (c-Met, TRKA, TRKB, TRKC)", "protocol": "as §1"}, "[24]": {"biological_target": "T24, FGFR4 (Homo sapiens, UniProt P22455)", "T24 construct": "purchased Invitrogen (c-Met, TRKA, TRKB, TRKC)", "T24 sequence (P22455 22-802)": "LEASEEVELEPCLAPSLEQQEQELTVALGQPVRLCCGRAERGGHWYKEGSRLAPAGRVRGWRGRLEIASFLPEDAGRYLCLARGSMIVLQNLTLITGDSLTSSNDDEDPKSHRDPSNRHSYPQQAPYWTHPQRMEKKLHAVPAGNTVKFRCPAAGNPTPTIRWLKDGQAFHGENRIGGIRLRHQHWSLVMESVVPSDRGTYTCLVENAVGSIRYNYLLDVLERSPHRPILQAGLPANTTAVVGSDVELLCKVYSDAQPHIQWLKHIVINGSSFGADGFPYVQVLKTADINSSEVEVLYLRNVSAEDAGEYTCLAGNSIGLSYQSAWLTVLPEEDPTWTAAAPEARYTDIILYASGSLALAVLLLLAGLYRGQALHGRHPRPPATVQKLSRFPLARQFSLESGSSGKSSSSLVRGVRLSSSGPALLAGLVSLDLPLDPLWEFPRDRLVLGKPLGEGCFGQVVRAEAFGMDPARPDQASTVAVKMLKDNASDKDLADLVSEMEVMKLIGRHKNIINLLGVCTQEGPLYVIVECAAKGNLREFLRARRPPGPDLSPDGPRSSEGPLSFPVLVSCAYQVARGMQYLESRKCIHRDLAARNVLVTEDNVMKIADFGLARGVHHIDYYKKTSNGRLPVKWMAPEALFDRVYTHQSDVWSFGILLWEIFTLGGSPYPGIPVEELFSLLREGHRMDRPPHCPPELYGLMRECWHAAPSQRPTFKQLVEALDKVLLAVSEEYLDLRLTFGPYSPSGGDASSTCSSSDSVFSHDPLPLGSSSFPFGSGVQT", "protocol": "as §1"}, "[25]": {"biological_target": "T25, TRKC (Homo sapiens, UniProt Q16288)", "T25 construct": "purchased Invitrogen (c-Met, TRKA, TRKB, TRKC)", "protocol": "as §1"}, "[26]": {"biological_target": "T26, SYK (Homo sapiens, UniProt P43405)", "T26 construct": "purchased Invitrogen (c-Met, TRKA, TRKB, TRKC)", "protocol": "as §1"}, "[27]": {"biological_target": "T27, DDR1 (Homo sapiens, UniProt Q08345)", "T27 construct": "purchased Invitrogen (c-Met, TRKA, TRKB, TRKC)", "protocol": "as §1"}, "[28]": {"biological_target": "T28, ALK (Homo sapiens, UniProt Q9UM73)", "T28 construct": "purchased Invitrogen (c-Met, TRKA, TRKB, TRKC)", "protocol": "as §1"}, "[29]": {"biological_target": "T29, ACK (Homo sapiens, UniProt Q07912)", "T29 construct": "purchased Invitrogen (c-Met, TRKA, TRKB, TRKC)", "protocol": "as §1"}, "[30]": {"biological_target": "T30, SRC (Homo sapiens, UniProt P12931)", "T30 construct": "purchased Invitrogen (c-Met, TRKA, TRKB, TRKC)", "protocol": "as §1"}, "[31]": {"biological_target": "T31, FER (Homo sapiens, UniProt P16591)", "T31 construct": "purchased Invitrogen (c-Met, TRKA, TRKB, TRKC)", "protocol": "as §1"}, "[32]": {"biological_target": "T32, EPHA7 (Homo sapiens, UniProt Q15375)", "T32 construct": "purchased Invitrogen (c-Met, TRKA, TRKB, TRKC)", "protocol": "as §1"}, "[33]": {"biological_target": "T33, IRR (Homo sapiens, UniProt P14616)", "T33 construct": "purchased Invitrogen (c-Met, TRKA, TRKB, TRKC)", "protocol": "as §1"}, "[34]": {"biological_target": "T34, FGFR1 (Homo sapiens, UniProt P11362)", "T34 construct": "purchased Invitrogen (c-Met, TRKA, TRKB, TRKC)", "T34 sequence (P11362 22-822)": "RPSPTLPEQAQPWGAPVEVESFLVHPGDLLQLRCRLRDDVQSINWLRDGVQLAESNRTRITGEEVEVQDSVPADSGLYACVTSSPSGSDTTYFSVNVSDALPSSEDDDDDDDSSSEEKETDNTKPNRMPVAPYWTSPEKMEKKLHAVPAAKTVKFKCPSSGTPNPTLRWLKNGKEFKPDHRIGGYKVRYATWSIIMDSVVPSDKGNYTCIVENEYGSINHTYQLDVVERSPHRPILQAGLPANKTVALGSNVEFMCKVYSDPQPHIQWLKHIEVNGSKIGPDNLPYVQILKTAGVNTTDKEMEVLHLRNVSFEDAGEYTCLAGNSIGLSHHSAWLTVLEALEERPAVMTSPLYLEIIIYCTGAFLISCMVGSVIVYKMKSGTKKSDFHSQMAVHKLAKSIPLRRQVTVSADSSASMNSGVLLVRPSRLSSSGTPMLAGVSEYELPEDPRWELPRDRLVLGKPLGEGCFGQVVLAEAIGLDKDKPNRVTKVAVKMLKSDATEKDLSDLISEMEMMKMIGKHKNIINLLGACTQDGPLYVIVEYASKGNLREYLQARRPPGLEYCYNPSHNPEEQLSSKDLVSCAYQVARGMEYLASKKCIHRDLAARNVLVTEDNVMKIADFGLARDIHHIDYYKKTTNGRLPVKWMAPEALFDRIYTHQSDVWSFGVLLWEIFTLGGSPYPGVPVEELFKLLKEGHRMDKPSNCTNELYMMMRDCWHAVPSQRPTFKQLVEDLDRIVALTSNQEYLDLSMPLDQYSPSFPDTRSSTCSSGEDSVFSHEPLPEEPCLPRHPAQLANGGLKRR", "protocol": "as §1"}, "[35]": {"biological_target": "T35, EPHA2 (Homo sapiens, UniProt P29317)", "T35 construct": "purchased Invitrogen (c-Met, TRKA, TRKB, TRKC)", "protocol": "as §1"}, "[36]": {"biological_target": "T36, EGFR (Homo sapiens, UniProt P00533)", "T36 construct": "purchased Invitrogen (c-Met, TRKA, TRKB, TRKC)", "protocol": "as §1"}, "[37]": {"biological_target": "T37, TIE2 (Homo sapiens, UniProt Q02763)", "T37 construct": "purchased Invitrogen (c-Met, TRKA, TRKB, TRKC)", "protocol": "as §1"}, "[38]": {"biological_target": "T38, FLT3 (Homo sapiens, UniProt P36888)", "T38 construct": "purchased Invitrogen (c-Met, TRKA, TRKB, TRKC)", "protocol": "as §1"}, "[39]": {"biological_target": "T39, IGF1R (Homo sapiens, UniProt P08069)", "T39 construct": "purchased Invitrogen (c-Met, TRKA, TRKB, TRKC)", "protocol": "as §1"}, "[40]": {"biological_target": "T40, FYN [b] (Homo sapiens, UniProt P06241)", "T40 construct": "purchased Invitrogen (c-Met, TRKA, TRKB, TRKC)", "protocol": "as §1"}}, "data": [{"compound": "[2H][C@@](C)(c1cccc(-c2ncc(OCC3CCN(C)CC3)cn2)c1)n1nc(-c2cccc(C#N)c2)ccc1=O", "note": "[1D228]", "values": [{"measurement": "inhibition at 0.5 µM", "setting": "[1]", "result": -3.07, "unit": "%"}, {"measurement": "inhibition at 0.5 µM", "setting": "[2]", "result": 1.82, "unit": "%"}, {"measurement": "inhibition at 0.5 µM", "setting": "[3]", "result": -3.54, "unit": "%"}, {"measurement": "inhibition at 0.5 µM", "setting": "[4]", "result": -3.95, "unit": "%"}, {"measurement": "inhibition at 0.5 µM", "setting": "[5]", "result": 18.6, "unit": "%"}, {"measurement": "inhibition at 0.5 µM", "setting": "[6]", "result": 12.2, "unit": "%"}, {"measurement": "inhibition at 0.5 µM", "setting": "[7]", "result": 5.68, "unit": "%"}, {"measurement": "inhibition at 0.5 µM", "setting": "[8]", "result": 5.21, "unit": "%"}, {"measurement": "inhibition at 0.5 µM", "setting": "[9]", "result": 89.2, "unit": "%"}, {"measurement": "inhibition at 0.5 µM", "setting": "[10]", "result": 11.3, "unit": "%"}, {"measurement": "inhibition at 0.5 µM", "setting": "[11]", "result": 5.12, "unit": "%"}, {"measurement": "inhibition at 0.5 µM", "setting": "[12]", "result": 5.08, "unit": "%"}, {"measurement": "inhibition at 0.5 µM", "setting": "[13]", "result": 11.1, "unit": "%"}, {"measurement": "inhibition at 0.5 µM", "setting": "[14]", "result": 8.52, "unit": "%"}, {"measurement": "inhibition at 0.5 µM", "setting": "[15]", "result": 4.51, "unit": "%"}, {"measurement": "inhibition at 0.5 µM", "setting": "[16]", "result": 8.29, "unit": "%"}, {"measurement": "inhibition at 0.5 µM", "setting": "[17]", "result": -3.98, "unit": "%"}, {"measurement": "inhibition at 0.5 µM", "setting": "[18]", "result": 5.26, "unit": "%"}, {"measurement": "inhibition at 0.5 µM", "setting": "[19]", "result": -4.5, "unit": "%"}, {"measurement": "inhibition at 0.5 µM", "setting": "[20]", "result": -6.48, "unit": "%"}, {"measurement": "inhibition at 0.5 µM", "setting": "[21]", "result": -0.66, "unit": "%"}, {"measurement": "inhibition at 0.5 µM", "setting": "[22]", "result": 2.21, "unit": "%"}, {"measurement": "inhibition at 0.5 µM", "setting": "[23]", "result": 84.1, "unit": "%"}, {"measurement": "inhibition at 0.5 µM", "setting": "[24]", "result": -0.37, "unit": "%"}, {"measurement": "inhibition at 0.5 µM", "setting": "[25]", "result": 99, "unit": "%"}, {"measurement": "inhibition at 0.5 µM", "setting": "[26]", "result": 2.47, "unit": "%"}, {"measurement": "inhibition at 0.5 µM", "setting": "[27]", "result": -11.8, "unit": "%"}, {"measurement": "inhibition at 0.5 µM", "setting": "[28]", "result": 89.5, "unit": "%"}, {"measurement": "inhibition at 0.5 µM", "setting": "[29]", "result": 1.96, "unit": "%"}, {"measurement": "inhibition at 0.5 µM", "setting": "[30]", "result": 2.91, "unit": "%"}, {"measurement": "inhibition at 0.5 µM", "setting": "[31]", "result": -13.3, "unit": "%"}, {"measurement": "inhibition at 0.5 µM", "setting": "[32]", "result": -1.36, "unit": "%"}, {"measurement": "inhibition at 0.5 µM", "setting": "[33]", "result": 3.88, "unit": "%"}, {"measurement": "inhibition at 0.5 µM", "setting": "[34]", "result": 1.72, "unit": "%"}, {"measurement": "inhibition at 0.5 µM", "setting": "[35]", "result": -0.798, "unit": "%"}, {"measurement": "inhibition at 0.5 µM", "setting": "[36]", "result": 1.17, "unit": "%"}, {"measurement": "inhibition at 0.5 µM", "setting": "[37]", "result": -2.64, "unit": "%"}, {"measurement": "inhibition at 0.5 µM", "setting": "[38]", "result": 17.9, "unit": "%"}, {"measurement": "inhibition at 0.5 µM", "setting": "[39]", "result": 5.26, "unit": "%"}, {"measurement": "inhibition at 0.5 µM", "setting": "[40]", "result": 10.9, "unit": "%"}]}]}
